The values that follow come from US6204293A, “Inhibitors of protein isoprenyl transferases” (University of Pittsburgh, priority 1998, dated 2001).

As a reminder, the % inhibition is the share of the control response that was lost under treatment. Read a low % inhibition as a weak effect. The inhibition is how much of the control response was suppressed.

Where a name gives a salt, the structure may show the parent alone.

T1 sequence (Q02293 whole entry, one chain of several): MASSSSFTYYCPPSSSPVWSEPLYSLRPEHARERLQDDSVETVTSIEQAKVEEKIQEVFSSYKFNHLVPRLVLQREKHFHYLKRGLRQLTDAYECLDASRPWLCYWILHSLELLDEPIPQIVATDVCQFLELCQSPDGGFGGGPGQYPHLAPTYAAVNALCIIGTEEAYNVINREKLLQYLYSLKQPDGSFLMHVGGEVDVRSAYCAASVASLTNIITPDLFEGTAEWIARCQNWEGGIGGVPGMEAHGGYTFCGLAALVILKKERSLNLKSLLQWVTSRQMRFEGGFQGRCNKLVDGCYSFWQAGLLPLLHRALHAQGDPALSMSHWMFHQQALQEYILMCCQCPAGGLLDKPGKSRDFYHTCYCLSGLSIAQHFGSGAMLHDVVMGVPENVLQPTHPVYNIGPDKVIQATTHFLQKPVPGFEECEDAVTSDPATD

The first experiment addresses T1, Rat brain protein farnesyltransferase (Rattus norvegicus, UniProt Q02293+Q04631).
T1 construct: Rat brain protein farnesyltransferase activity is measured; from tissue; host or cells: rat brain
Kind of experiment: % inhibition of farnesylation, scintillation proximity assay with biotin-K Ras B fragment. To be noted: Table 2; 1 × 10^-6 M. It counts as biochemical. Put shortly: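 Rat brain enzyme, purified through three steps, in a scintillation proximity assay kit with biotin-K Ras B fragment substrate at 0.1 mM final. Value is % inhibition of farnesylation.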
(In general: Scintillation proximity formats need no separation of bound from free tracer.)
With `CSCC[C@H](NC(=O)c1ccc(CNCCC2CCCCC2)cc1-c1ccccc1C)C(=O)O.O=C(O)C(F)(F)F` [Example 607], the “% inhibition at 1 × 10^-6 M” value is 96%.
On to `CSCC[C@H](NC(=O)c1ccc(CN(CCC2CCCCC2)C(=O)N(C)C)cc1-c1ccccc1C)C(=O)O` [Example 610], for which the “% inhibition at 1 × 10^-6 M” value turned out to be 94%.
`CSCC[C@H](NC(=O)c1ccc(CN[C@H](C)CC2CCCCC2)cc1-c1ccccc1C)C(=O)O` [Example 613]: the “% inhibition at 1 × 10^-6 M” value is recorded as 97%.
Same read-out and setting: in the case of `CSCC[C@H](NC(=O)c1ccc(CN[C@H](CO)CC2CCCCC2)cc1-c1ccccc1C)C(=O)O` [Example 617] it was 99%; in that of `CCS(=O)(=O)C[C@H](CC1CCCCC1)NCc1ccc(C(=O)N[C@@H](CCSC)C(=O)O)c(-c2ccccc2C)c1` [Example 620], 98%.

The same experiment, now with this note: Table 3; 1 × 10^-7 M.
`CSCC[C@H](NC(=O)c1ccc(CN[C@@H](CO)C2CCCCC2)cc1-c1ccccc1C)C(=O)O` [Example 604]: the “% inhibition at 1 × 10^-7 M” value is 86%.
Consider `CSCC[C@H](NC(=O)c1ccc(CN(CCC2CCCCC2)C(C)=O)cc1-c1ccccc1C)C(=O)[O-].[Li+]` [Example 609], for which the “% inhibition at 1 × 10^-7 M” value is on record as 95%.
For the molecule `CSCC[C@H](NC(=O)c1ccc(CN(CCC2CCCCC2)S(C)(=O)=O)cc1-c1ccccc1C)C(=O)O` [Example 611], the “% inhibition at 1 × 10^-7 M” value is on record as 95%.
Consider `CCCC[C@H](CC1CCCCC1)NCc1ccc(C(=O)N[C@@H](CCSC)C(=O)O)c(-c2ccccc2C)c1` [Example 615], for which the “% inhibition at 1 × 10^-7 M” value stood at 94%.
In the case of `CSCC[C@H](NC(=O)c1ccc(CNC(CC2CCCCC2)C2CCCCC2)cc1-c1ccccc1C)C(=O)[O-].[Li+]` (stereo partly drawn) [Example 616], the “% inhibition at 1 × 10^-7 M” value came to 95%.
With `CSCC[C@H](NC(=O)c1ccc(CN[C@@H](CO)CC2CCCCC2)cc1-c1ccccc1C)C(=O)O` [Example 618], the “% inhibition at 1 × 10^-7 M” value worked out at 89%.
For `CCS(=O)(=O)C[C@H](CC1CCCCC1)NCc1ccc(C(=O)N[C@@H](CCS(C)(=O)=O)C(=O)O)c(-c2ccccc2C)c1` [Example 621], the “% inhibition at 1 × 10^-7 M” value is reported as 98%.
Regarding `CSCC[C@H](NC(=O)c1ccc(CN[C@H](CSC(C)(C)C)CC2CCCCC2)cc1-c1ccccc1C)C(=O)O` [Example 622], the “% inhibition at 1 × 10^-7 M” value is reported as 95%.

Staying with this experiment, now noted: Table 4; 1 × 10^-8 M.
Consider `CSCC[C@H](NC(=O)c1ccc(CN(CCC2CCCCC2)Cc2ccccc2)cc1-c1ccccc1C)C(=O)[O-].[Li+]` [Example 605], for which the “% inhibition at 1 × 10^-8 M” value was 68%.
Same read-out and setting: the same measure for `CSCC[C@H](NC(=O)c1ccc(CN(C)CCC2CCCCC2)cc1-c1ccccc1C)C(=O)[O-].[Li+]` [Example 608]: 91%; for `CSCC[C@H](NC(=O)c1ccc(CN(CCC2CCCCC2)S(=O)(=O)c2ccccc2)cc1-c1ccccc1C)C(=O)O` [Example 612]: 96%; for `CC[C@H](CC1CCCCC1)NCc1ccc(C(=O)N[C@@H](CCSC)C(=O)O)c(-c2ccccc2C)c1` [Example 614]: 92%.
Consider `C=C[C@H](CC1CCCCC1)NCc1ccc(C(=O)N[C@@H](CCSC)C(=O)O)c(-c2ccccc2C)c1` [Example 619], for which the “% inhibition at 1 × 10^-8 M” value is given as 95%.

The same experiment, now with this note: read-out: % inhibition at 1 × 10^-6 M.
Turning to `CSCC[C@H](NC(=O)c1ccc(COCc2ccccc2C)cc1-c1ccccc1C)C(=O)O` [Example 577, N-[4-(2-methylbenzyloxymethyl)-2-(2-methylphenyl)benzoyl]methionine lithium salt], the inhibition at 1 µM is 94%.
For the molecule `CSCC[C@H](NC(=O)c1ccc(COCc2ccc3ccccc3c2)cc1-c1ccccc1C)C(=O)O` [Example 583, N-[4-(naphth-2-ylmethoxymethyl)-2-(2-methylphenyl)benzoyl]methionine lithium salt], the inhibition at 1 µM stood at 98%.
For the molecule `CSCC[C@H](NC(=O)c1ccc(COCCc2ccccc2)cc1-c1ccccc1C)C(=O)O` [Example 587, N-[4-(2-phenylethoxymethyl)-2-(2-methylphenyl)benzoyl]methionine lithium salt], the inhibition at 1 µM was determined as 97%.
As to `CSCC[C@H](NC(=O)c1ccc(COCCCc2ccccc2)cc1-c1ccccc1C)C(=O)O` [Example 595, N-[4-(3-phenylpropoxymethyl)-2-(2-methylphenyl)benzoyl]methionine lithium salt], the inhibition at 1 µM was 97%.

Staying with this experiment, now noted: read-out: % inhibition at 1 × 10^-6 M; Table 2; 1 × 10^-6 M.
For the molecule `CSCC[C@H](NC(=O)c1ccc(COCc2ccccc2)cc1-c1ccccc1C)C(=O)NS(=O)(=O)c1ccc(C)cc1` [Example 582, 4-methylbenzenesulfonyl N-2-[4-(benzyloxymethyl)-2-(2-methylphenyl)benzoyl]amino-4-methylthiobutanamide], the inhibition at 1 µM amounted to 99%.

The experiment is the same for the next values; noted with them: read-out: % inhibition at 1 × 10^-7 M.
As for `CSCC[C@H](NC(=O)c1ccc(COCc2cccc(C)c2)cc1-c1ccccc1C)C(=O)O` [Example 578, N-[4-(3-methylbenzyloxymethyl)-2-(2-methylphenyl)benzoyl]methionine lithium salt], the inhibition at 0.1 µM is 90%.
Still for that read-out and setting: in the case of `CSCC[C@H](NC(=O)c1ccc(COCc2ccc(C)cc2)cc1-c1ccccc1C)C(=O)O` [Example 579, N-[4-(4-methylbenzyloxymethyl)-2-(2-methylphenyl)benzoyl]methionine lithium salt] it was 92%; in that of `CSCC[C@H](NC(=O)c1ccc(COCc2cccc3ccccc23)cc1-c1ccccc1C)C(=O)O` [Example 584, N-[4-(naphth-1-ylmethoxymethyl)-2-(2-methylphenyl)benzoyl]methionine lithium salt], 96%; in that of `CSCC[C@H](NC(=O)c1ccc(COCC2CCCCC2)cc1-c1ccccc1C)C(=O)O` [Example 585, N-[4-(cyclohexylmethoxymethyl)-2-(2-methylphenyl)benzoyl]methionine lithium salt], 96%.
Same read-out and setting: in the case of `CSCC[C@H](NC(=O)c1ccc(COCCc2ccc(Cl)cc2)cc1-c1ccccc1C)C(=O)O` [Example 590, N-[4-(2-(4-chlorophenyl)ethoxymethyl)-2-(2-methylphenyl)benzoyl]methionine lithium salt] it was 95%.
For `CSCC[C@H](NC(=O)c1ccc(COCCc2cccc3ccccc23)cc1-c1ccccc1C)C(=O)O` [Example 592, N-[4-(2-naphth-1-ylethoxymethyl)-2-(2-methylphenyl)benzoyl]methionine lithium salt], the inhibition at 0.1 µM is 93%.
For `CSCC[C@H](NC(=O)c1ccc(COCCc2ccc3ccccc3c2)cc1-c1ccccc1C)C(=O)O` [Example 593, N-[4-(2-naphth-2-ylethoxymethyl)-2-(2-methylphenyl)benzoyl]methionine lithium salt], the inhibition at 0.1 µM stood at 86%.
With `CSCC[C@H](NC(=O)c1ccc(COCCC2CCCCC2)cc1-c1ccccc1C)C(=O)O` [Example 594, N-[4-(2-cyclohexylethoxymethyl)-2-(2-methylphenyl)benzoyl]methionine lithium salt], the inhibition at 0.1 µM came to 95%.
With `CSCC[C@@H](C(=O)O)N(C)C(=O)c1ccc(COCCCC2CCCCC2)cc1-c1ccccc1C` [Example 597, N-[4-(3-cyclohexylpropoxymethyl)-2-(2-methylphenyl)benzoyl]-N-methylmethionine lithium salt], the inhibition at 0.1 µM was 75%.

Staying with this experiment, now noted: read-out: % inhibition at 1 × 10^-7 M; Table 3; 1 × 10^-7 M.
For `CSCC[C@H](NC(=O)c1ccc(COCc2ccccc2)cc1-c1ccccc1C)C(=O)NS(=O)(=O)c1ccccc1` [Example 580, Benzenesulfonyl N-2-[4-(benzyloxymethyl)-2-(2-methylphenyl)benzoyl]amino-4-methylthiobutanamide], the inhibition at 0.1 µM was 90%.
`CSCC[C@H](NC(=O)c1ccc(COCc2ccccc2)cc1-c1ccccc1C)C(=O)NS(=O)(=O)c1ccc(Cl)cc1` [Example 581, 4-chlorobenzenesulfonyl N-2-[4-(benzyloxymethyl)-2-(2-methylphenyl)benzoyl]amino-4-methylthiobutanamide]: the inhibition at 0.1 µM came out at 96%.
As for `COc1ccccc1CCOCc1ccc(C(=O)N[C@@H](CCSC)C(=O)O)c(-c2ccccc2C)c1` [Example 589, N-[4-(2-(2-methoxyphenyl)ethoxymethyl)-2-(2-methylphenyl)benzoyl]methioninelithium salt], the inhibition at 0.1 µM was determined as 91%.
In the case of `CSCC[C@H](NC(=O)c1ccc(COCCCCC2CCCCC2)cc1-c1ccccc1C)C(=O)O` [Example 600], the inhibition at 0.1 µM stood at 93%.
For the molecule `CSCC[C@H](NC(=O)c1ccc(COCCCCc2ccccc2)cc1-c1ccccc1C)C(=O)O` [Example 601], the inhibition at 0.1 µM amounted to 92%.

The experiment is the same for the next values; noted with them: read-out: % inhibition at 1 × 10^-8 M.
Turning to `CSCC[C@H](NC(=O)c1ccc(COCCc2ccccc2Cl)cc1-c1ccccc1C)C(=O)O` [Example 588, N-[4-(2-(2-chlorophenyl)ethoxymethyl)-2-(2-methylphenyl)benzoyl]methionine lithium salt], the inhibition at 0.01 µM came to 68%.
In the case of `CSCC[C@H](NC(=O)c1ccc(COCCc2ccc(Cl)cc2Cl)cc1-c1ccccc1C)C(=O)O` [Example 591, N-[4-(2-(2,4-dichlorophenyl)ethoxymethyl)-2-(2-methylphenyl)benzoyl]methionine lithium salt], the inhibition at 0.01 µM turned out to be 82%.
For `CSCC[C@H](NC(=O)c1ccc(COCCCC23CC4CC(CC(C4)C2)C3)cc1-c1ccccc1C)C(=O)O` [Example 599, N-[4-(3-adamant-1-ylpropoxymethyl)-2-(2-methylphenyl)benzoyl]methionine lithium salt], the inhibition at 0.01 µM is 86%.

The same experiment, now with this note: read-out: % inhibition at 1 × 10^-8 M; Table 4; 1 × 10^-8 M.
For the molecule `CSCC[C@H](NC(=O)c1ccc(CSCc2ccccc2)cc1-c1ccccc1C)C(=O)NS(=O)(=O)c1ccc(C)cc1` [Example 586, 4-methylbenzenesulfonyl N-2-[4-(benzylthiomethyl)-2-(2-methylphenyl)benzoyl]amino-4-methylthiobutanamide], the inhibition at 0.01 µM was determined as 90%.
In the case of `CCSC[C@H](CC1CCCCC1)OCc1ccc(C(=O)N[C@@H](CCSC)C(=O)O)c(-c2ccccc2C)c1` [Example 606, Lithium Salt], the inhibition at 0.01 µM came to 93%.
